Assay [1] concerns RNA. The experiment in a line: Binding affinity to complementary RNA (unknown origin) with mismatch bases in sodium phosphate buffer. It counts as nucleic-acid assay.
Assay [2] has as its system RNA. The experiment in a line: Binding affinity to complementary RNA (unknown origin) in sodium phosphate buffer assessed as melting temperature of PNA-RNA duplex. Type of assay: nucleic-acid assay.

The source made the active and inactive calls. The calls are words filed in the database; no cut-off is given here.

As usually defined, the Tm is the temperature at which the thermal transition is half complete. Take `Cc1cn(CC(=O)N(CCNC(=O)CN(CCNC(=O)CN(CCN)C(=O)Cn2ccc(N)nc2=O)C(=O)Cn2ccc(N)nc2=O)CC(=O)NCCN(CC(=O)NCCN(CC(=O)NCCN(CC(=O)NCCN(CC(=O)NCCN(CC(=O)NCCN(CC(=O)NCCN(CC(=O)NCCN(CC(=O)NCCN(CC(=O)NCCN(CC(=O)NCCN(CC(=O)O)C(=O)Cn2cnc3c(=O)[nH]c(N)nc32)C(=O)Cn2cnc3c(N)ncnc32)C(=O)Cn2cc3cc(COCCN)[nH]c3nc2=O)C(=O)Cn2ccc(N)nc2=O)C(=O)Cn2cnc3c(N)nc(NCCCCCN)nc32)C(=O)Cn2ccc(N)nc2=O)C(=O)Cn2cnc3c(=O)[nH]c(N)nc32)C(=O)Cn2cnc3c(=O)[nH]c(NCCCCCCN)nc32)C(=O)Cn2cc(C)c(=O)[nH]c2=O)C(=O)Cn2ccc(N)nc2=O)C(=O)Cn2cc3cc(COCCN)[nH]c3nc2=O)c(=O)[nH]c1=O`: the outcome in the assay on RNA [1] was inactive. For the same compound, the Tm with RNA [2] came out at 78.1 °C.

On to `Cc1cn(CC(=O)N(CCNC(=O)CN(CCNC(=O)CN(CCNC(=O)CN(CCNC(=O)CN(CCNC(=O)CN(CCNC(=O)CN(CCNC(=O)CN(CCNC(=O)CN(CCN)C(=O)Cn2cnc3c(N)nc(NCCCCCN)nc32)C(=O)Cn2ccc(N)nc2=O)C(=O)Cn2cnc3c(=O)[nH]c(N)nc32)C(=O)Cn2cnc3c(=O)[nH]c(NCCCCCCN)nc32)C(=O)Cn2ccc(N)nc2=O)C(=O)Cn2cc(C)c(=O)[nH]c2=O)C(=O)Cn2cc3cc(COCCN)[nH]c3nc2=O)C(=O)Cn2ccc(N)nc2=O)CC(=O)NCCN(CC(=O)NCCN(CC(=O)NCCN(CC(=O)NCCN(CC(=O)NCCN(CC(N)=O)C(=O)Cn2cnc3c(=O)[nH]c(N)nc32)C(=O)Cn2cnc3c(=O)[nH]c(NCCCCCCN)nc32)C(=O)Cn2cc(C)c(=O)[nH]c2=O)C(=O)Cn2ccc(N)nc2=O)C(=O)Cn2cc3cc(COCCN)[nH]c3nc2=O)c(=O)[nH]c1=O`, for which the outcome in the assay with RNA [1] was inactive. Also, the Tm in the assay on RNA [2] amounted to 81 °C.

As to `Cc1cn(CC(=O)N(CCNC(=O)CN(CCNC(=O)CN(CCNC(=O)CN(CCNC(=O)CN(CCNC(=O)CN(CCNC(=O)CN(CCNC(=O)CN(CCNC(=O)CN(CCNC(=O)CN(CCNC(=O)CN(CCNC(=O)CN(CCNC(=O)CN(CCN)C(=O)Cn2cnc3c(N)nc(NCCCCCN)nc32)C(=O)Cn2ccc(N)nc2=O)C(=O)Cn2cc(C)c(=O)[nH]c2=O)C(=O)Cn2ccc(N)nc2=O)C(=O)Cn2cnc3c(N)nc(NCCCCCN)nc32)C(=O)Cn2ccc(N)nc2=O)C(=O)Cn2cnc3c(=O)[nH]c(N)nc32)C(=O)Cn2cnc3c(=O)[nH]c(N)nc32)C(=O)Cn2ccc(N)nc2=O)C(=O)Cn2cc(C)c(=O)[nH]c2=O)C(=O)Cn2cc3cc(COCCN)[nH]c3nc2=O)C(=O)Cn2ccc(N)nc2=O)CC(=O)NCCN(CC(=O)NCCN(CC(=O)NCCN(CC(=O)NCCN(CC(=O)NCCN(CC(=O)NCCN(CC(=O)NCCN(CC(=O)O)C(=O)Cn2cnc3c(N)nc(NCCCCCN)nc32)C(=O)Cn2ccc(N)nc2=O)C(=O)Cn2cnc3c(=O)[nH]c(N)nc32)C(=O)Cn2cnc3c(=O)[nH]c(NCCCCCCN)nc32)C(=O)Cn2cc(C)c(=O)[nH]c2=O)C(=O)Cn2ccc(N)nc2=O)C(=O)Cn2ccc(N)nc2=O)c(=O)[nH]c1=O`, in the assay on RNA [1], the outcome was inactive. Besides, in the assay with RNA [2], the Tm was above 90 °C.

As to `Cc1cn(CC(=O)N(CCN)CC(=O)NCCN(CC(=O)NCCN(CC(=O)NCCN(CC(=O)NCCN(CC(=O)NCCN(CC(=O)NCCN(CC(=O)NCCN(CC(=O)NCCN(CC(=O)NCCN(CC(=O)NCCN(CC(=O)NCCN(CC(=O)NCCN(CC(=O)NCCN(CC(=O)O)C(=O)Cn2ccc(N)nc2=O)C(=O)Cn2cc3cc(COCCN)[nH]c3nc2=O)C(=O)Cn2cc(C)c(=O)[nH]c2=O)C(=O)Cn2ccc(N)nc2=O)C(=O)Cn2cnc3c(=O)[nH]c(NCCCCCCN)nc32)C(=O)Cn2cnc3c(=O)[nH]c(N)nc32)C(=O)Cn2cnc3c(N)nc(NCCCCCN)nc32)C(=O)Cn2ccc(N)nc2=O)C(=O)Cn2cnc3c(=O)[nH]c(NCCCCCCN)nc32)C(=O)Cn2cc(C)c(=O)[nH]c2=O)C(=O)Cn2cnc3c(=O)[nH]c(NCCCCCCN)nc32)C(=O)Cn2cc(C)c(=O)[nH]c2=O)C(=O)Cn2cnc3c(=O)[nH]c(NCCCCCCN)nc32)c(=O)[nH]c1=O`, the result with RNA [1] was inactive. Also, the Tm in the assay on RNA [2] amounted to 70.5 °C.

For the compound `Cc1cn(CC(=O)N(CCNC(=O)CN(CCNC(=O)CN(CCN)C(=O)Cn2ccc(N)nc2=O)C(=O)Cn2cc3cc(COCCN)[nH]c3nc2=O)CC(=O)NCCN(CC(=O)NCCN(CC(=O)NCCN(CC(=O)NCCN(CC(=O)NCCN(CC(=O)NCCN(CC(=O)NCCN(CC(=O)NCCN(CC(=O)NCCN(CC(=O)NCCN(CC(=O)NCCN(CC(=O)NCCN(CC(=O)NCCN(CC(=O)NCCN(CC(=O)NCCN(CC(=O)NCCN(CC(=O)NCCN(CC(=O)O)C(=O)Cn2ccc(N)nc2=O)C(=O)Cn2cnc3c(=O)[nH]c(NCCCCCCN)nc32)C(=O)Cn2ccc(N)nc2=O)C(=O)Cn2ccc(N)nc2=O)C(=O)Cn2cnc3c(=O)[nH]c(NCCCCCCN)nc32)C(=O)Cn2cnc3c(=O)[nH]c(N)nc32)C(=O)Cn2cc(C)c(=O)[nH]c2=O)C(=O)Cn2ccc(N)nc2=O)C(=O)Cn2cnc3c(N)ncnc32)C(=O)Cn2cnc3c(N)nc(NCCCCCN)nc32)C(=O)Cn2cnc3c(N)ncnc32)C(=O)Cn2cnc3c(=O)[nH]c(N)nc32)C(=O)Cn2cc(C)c(=O)[nH]c2=O)C(=O)Cn2ccc(N)nc2=O)C(=O)Cn2ccc(N)nc2=O)C(=O)Cn2cnc3c(N)nc(NCCCCCN)nc32)C(=O)Cn2ccc(N)nc2=O)c(=O)[nH]c1=O`, the result in the assay with RNA [1] was inactive. Besides, the Tm with RNA [2] came out at 79.2 °C.

In the case of `Cc1cn(CC(=O)N(CCNC(=O)CN(CCNC(=O)CN(CCNC(=O)CN(CCNC(=O)CN(CCNC(=O)CN(CCN)C(=O)Cn2cnc3c(N)nc(NCCCCCN)nc32)C(=O)Cn2cnc3c(N)ncnc32)C(=O)Cn2cnc3c(=O)[nH]c(N)nc32)C(=O)Cn2cnc3c(=O)[nH]c(N)nc32)C(=O)Cn2cc(C)c(=O)[nH]c2=O)CC(=O)NCCN(CC(=O)NCCN(CC(=O)NCCN(CC(=O)NCCN(CC(=O)NCCN(CC(=O)NCCN(CC(=O)NCCN(CC(=O)NCCN(CC(=O)NCCN(CC(=O)NCCN(CC(=O)NCCN(CC(=O)NCCN(CC(=O)NCCN(CC(=O)NCCN(CC(=O)O)C(=O)Cn2cnc3c(N)nc(NCCCCCN)nc32)C(=O)Cn2ccc(N)nc2=O)C(=O)Cn2cnc3c(N)ncnc32)C(=O)Cn2cnc3c(N)nc(NCCCCCN)nc32)C(=O)Cn2cc(C)c(=O)[nH]c2=O)C(=O)Cn2ccc(N)nc2=O)C(=O)Cn2ccc(N)nc2=O)C(=O)Cn2cnc3c(=O)[nH]c(N)nc32)C(=O)Cn2cnc3c(=O)[nH]c(N)nc32)C(=O)Cn2cnc3c(N)nc(NCCCCCN)nc32)C(=O)Cn2ccc(N)nc2=O)C(=O)Cn2ccc(N)nc2=O)C(=O)Cn2cc3cc(COCCN)[nH]c3nc2=O)C(=O)Cn2ccc(N)nc2=O)c(=O)[nH]c1=O`, the outcome in the assay with RNA [1] was inactive. Further, the Tm in the assay on RNA [2] was above 90 °C.

Turning to `Cc1cn(CC(=O)N(CCNC(=O)CN(CCNC(=O)CN(CCNC(=O)CN(CCNC(=O)CN(CCNC(=O)CN(CCNC(=O)CN(CCNC(=O)CN(CCNC(=O)CN(CCNC(=O)CN(CCNC(=O)CN(CCNC(=O)CN(CCNC(=O)CN(CCNC(=O)CN(CCN)C(=O)Cn2cc(C)c(=O)[nH]c2=O)C(=O)Cn2ccc(N)nc2=O)C(=O)Cn2cnc3c(N)nc(NCCCCCN)nc32)C(=O)Cn2cc3cc(COCCN)[nH]c3nc2=O)C(=O)Cn2cnc3c(=O)[nH]c(N)nc32)C(=O)Cn2cnc3c(=O)[nH]c(NCCCCCCN)nc32)C(=O)Cn2ccc(N)nc2=O)C(=O)Cn2cc(C)c(=O)[nH]c2=O)C(=O)Cn2cc3cc(COCCN)[nH]c3nc2=O)C(=O)Cn2ccc(N)nc2=O)C(=O)Cn2cc(C)c(=O)[nH]c2=O)C(=O)Cn2ccc(N)nc2=O)C(=O)Cn2cc3cc(COCCN)[nH]c3nc2=O)CC(=O)O)c(=O)[nH]c1=O`, the result in the assay with RNA [1] was inactive. In addition, the Tm with RNA [2] was 80.4 °C.

For `Cc1cn(CC(=O)N(CCNC(=O)CN(CCNC(=O)CN(CCNC(=O)CN(CCNC(=O)CN(CCN)C(=O)Cn2ccc(N)nc2=O)C(=O)Cn2cc(C)c(=O)[nH]c2=O)C(=O)Cn2cc3cc(COCCN)[nH]c3nc2=O)C(=O)Cn2ccc(N)nc2=O)CC(=O)NCCN(CC(=O)NCCN(CC(=O)NCCN(CC(=O)NCCN(CC(=O)NCCN(CC(=O)NCCN(CC(=O)NCCN(CC(=O)NCCN(CC(=O)NCCN(CC(=O)O)C(=O)Cn2cc3cc(COCCN)[nH]c3nc2=O)C(=O)Cn2ccc(N)nc2=O)C(=O)Cn2cnc3c(N)nc(NCCCCCN)nc32)C(=O)Cn2ccc(N)nc2=O)C(=O)Cn2cnc3c(=O)[nH]c(N)nc32)C(=O)Cn2cnc3c(=O)[nH]c(NCCCCCCN)nc32)C(=O)Cn2cc(C)c(=O)[nH]c2=O)C(=O)Cn2cc3cc(COCCN)[nH]c3nc2=O)C(=O)Cn2ccc(N)nc2=O)c(=O)[nH]c1=O`, the outcome in the assay with RNA [1] was inactive. For the same compound, the Tm in the assay with RNA [2] is 79 °C.

In the case of `Cc1cn(CC(=O)N(CCNC(=O)CN(CCNC(=O)CN(CCNC(=O)CN(CCNC(=O)CN(CCNC(=O)CN(CCN)C(=O)Cn2ccc(N)nc2=O)C(=O)Cn2cnc3c(N)nc(NCCCCCN)nc32)C(=O)Cn2cnc3c(=O)[nH]c(N)nc32)C(=O)Cn2cnc3c(=O)[nH]c(N)nc32)C(=O)Cn2cc3cc(COCCN)[nH]c3nc2=O)CC(=O)NCCN(CC(=O)NCCN(CC(=O)NCCN(CC(=O)NCCN(CC(=O)NCCN(CC(=O)NCCN(CC(=O)NCCN(CC(=O)NCCN(CC(=O)O)C(=O)Cn2cnc3c(=O)[nH]c(NCCCCCCN)nc32)C(=O)Cn2cnc3c(=O)[nH]c(N)nc32)C(=O)Cn2cnc3c(=O)[nH]c(N)nc32)C(=O)Cn2cnc3c(=O)[nH]c(NCCCCCCN)nc32)C(=O)Cn2cc(C)c(=O)[nH]c2=O)C(=O)Cn2cc3cc(COCCN)[nH]c3nc2=O)C(=O)Cn2ccc(N)nc2=O)C(=O)Cn2ccc(N)nc2=O)c(=O)[nH]c1=O`, the result in the assay with RNA [1] was inactive.

Source of the values: ChEMBL document CHEMBL6120979, “Cell penetrable peptide nucleic acids targeting PDZK1IP1 with anti-inflammatory potential in human keratinocytes” (Bioorg Med Chem Lett, 2025).
